# Laboratory results: PubChem BioAssay (NCI)
#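 96-well plates; 48 h exposure; 5 concentrations. Endpoints by linear interpolation between flanking doses. Not reached: highest tested concentration assigned. The concentration for 50% growth inhibition is given as GI50. TGI marks complete inhibition of growth.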
# Tests used:
# Test in all cases: growth of human tumour cells (NCI), 48 h
# 786-0 renal = system: 786-0 renal
# A498 renal = system: A498 renal
# A549 NSCLC = system: A549 NSCLC
# ACHN renal = system: ACHN renal
# BT-549 breast = system: BT-549 breast
# CAKI-1 renal = system: CAKI-1 renal
# CCRF-CEM leukemia = system: CCRF-CEM leukemia
# COLO 205 colon = system: COLO 205 colon
# DU-145 prostate = system: DU-145 prostate
# EKVX NSCLC = system: EKVX NSCLC
# HCC-2998 colon = system: HCC-2998 colon
# HCT-116 colon = system: HCT-116 colon
# HCT-15 colon = system: HCT-15 colon
# HL-60(TB) leukemia = system: HL-60(TB) leukemia
# HOP-62 NSCLC = system: HOP-62 NSCLC
# HOP-92 NSCLC = system: HOP-92 NSCLC
# HT29 colon = system: HT29 colon
# IGROV1 ovarian = system: IGROV1 ovarian
# K-562 leukemia = system: K-562 leukemia
# KM12 colon = system: KM12 colon
# M14 melanoma = system: M14 melanoma
# MALME-3M melanoma = system: MALME-3M melanoma
# MCF7 breast = system: MCF7 breast
# MDA-MB-435 = system: MDA-MB-435
# MDA-MB-468 breast = system: MDA-MB-468 breast
# MOLT-4 leukemia = system: MOLT-4 leukemia
# NCI-H226 lung = system: NCI-H226 lung
# NCI-H23 lung = system: NCI-H23 lung
structure (smiles),measurement,setting,value
COc1ccc2[nH]c(=O)c(CSc3nccc(-c4ccc(OC)c(OC)c4)n3)cc2c1,GI50,786-0 renal,15.4 µM
same,TGI,786-0 renal,33.8 µM
same,GI50,A498 renal,14.7 µM
same,TGI,A498 renal,37.5 µM
same,GI50,A549 NSCLC,20.9 µM
same,TGI,A549 NSCLC,91.5 µM
same,GI50,ACHN renal,12.1 µM
same,TGI,ACHN renal,24.4 µM
same,GI50,BT-549 breast,12.5 µM
same,TGI,BT-549 breast,37.1 µM
same,GI50,CAKI-1 renal,11 µM
same,TGI,CAKI-1 renal,32.8 µM
same,GI50,CCRF-CEM leukemia,10.5 µM
same,TGI,CCRF-CEM leukemia,> 100 µM
same,GI50,COLO 205 colon,32.1 µM
same,TGI,COLO 205 colon,> 100 µM
same,GI50,DU-145 prostate,14.3 µM
same,TGI,DU-145 prostate,32.4 µM
same,GI50,EKVX NSCLC,12.9 µM
same,TGI,EKVX NSCLC,44 µM
same,GI50,HCC-2998 colon,18.1 µM
same,TGI,HCC-2998 colon,57.6 µM
same,GI50,HCT-116 colon,15.7 µM
same,TGI,HCT-116 colon,49.2 µM
same,GI50,HCT-15 colon,15.4 µM
same,TGI,HCT-15 colon,46.9 µM
same,GI50,HL-60(TB) leukemia,35.2 µM
same,TGI,HL-60(TB) leukemia,> 100 µM
same,GI50,HOP-62 NSCLC,18.4 µM
same,TGI,HOP-62 NSCLC,51.3 µM
same,GI50,HOP-92 NSCLC,2.01 µM
same,TGI,HOP-92 NSCLC,8.63 µM
same,GI50,HT29 colon,17.7 µM
same,TGI,HT29 colon,38.5 µM
same,GI50,IGROV1 ovarian,17.7 µM
same,TGI,IGROV1 ovarian,41.6 µM
same,GI50,K-562 leukemia,7.33 µM
same,TGI,K-562 leukemia,29.6 µM
same,GI50,KM12 colon,21.8 µM
same,TGI,KM12 colon,62.1 µM
same,GI50,M14 melanoma,25.5 µM
same,TGI,M14 melanoma,74.4 µM
same,GI50,MALME-3M melanoma,19.5 µM
same,TGI,MALME-3M melanoma,40 µM
same,GI50,MCF7 breast,18.7 µM
same,TGI,MCF7 breast,43 µM
same,GI50,MDA-MB-435,23.7 µM
same,TGI,MDA-MB-435,73.8 µM
same,GI50,MDA-MB-468 breast,5.84 µM
same,TGI,MDA-MB-468 breast,32.2 µM
same,GI50,MOLT-4 leukemia,9.07 µM
same,TGI,MOLT-4 leukemia,42.9 µM
same,GI50,NCI-H226 lung,12.7 µM
same,TGI,NCI-H226 lung,40.8 µM
same,GI50,NCI-H23 lung,17.6 µM
